# Measured values published in ChEMBL document CHEMBL1201862, “PubChem BioAssay data set” (2004).
#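 Values below derive from 48-hour exposures of cells grown in 96-well plates, with endpoints linearly interpolated between the two concentrations bracketing the appropriate inhibition level. Abbreviation: GI50, concentration required for 50% inhibition of growth.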 Active and inactive are the calls of the source. No stated cut-off is given here; in the data, active = GI50 up to about 1.1 µM and inactive = higher.
# Key:
# Assay in all cases: NCI-60 cell line screen, 48 h
# CAKI-1 = test system: CAKI-1
# CCRF-CEM = test system: CCRF-CEM
# EKVX = test system: EKVX
# HCT-116 = test system: HCT-116
# IGROV-1 = test system: IGROV-1
# LOX IMVI = test system: LOX IMVI
# M14 = test system: M14
# MCF7 = test system: MCF7
# MDA-MB-435 = test system: MDA-MB-435
# NCI-H460 = test system: NCI-H460
# NCI-H522 = test system: NCI-H522
# OVCAR-3 = test system: OVCAR-3
# RXF 393 = test system: RXF 393
# SK-MEL-2 = test system: SK-MEL-2
# SK-OV-3 = test system: SK-OV-3
# SN12C = test system: SN12C
# SNB-19 = test system: SNB-19
# SNB-75 = test system: SNB-75
# SR = test system: SR
# UACC-257 = test system: UACC-257
Compound,GI50 (CAKI-1),GI50 (CCRF-CEM),GI50 (EKVX),GI50 (HCT-116),GI50 (IGROV-1),GI50 (LOX IMVI),GI50 (M14),GI50 (MCF7),GI50 (MDA-MB-435),GI50 (NCI-H460),GI50 (NCI-H522),GI50 (OVCAR-3),GI50 (RXF 393),GI50 (SK-MEL-2),GI50 (SK-OV-3),GI50 (SN12C),GI50 (SNB-19),GI50 (SNB-75),GI50 (SR),GI50 (UACC-257)
CCCCCCCCC/C=C1/CC(CO)(COC(=O)CC(C(C)C)C(C)C)OC1=O (stereo not given),4.18 µM (inactive),5.35 µM (inactive),4.35 µM (inactive),13.2 µM (inactive),15.4 µM (inactive),11.5 µM (inactive),2.39 µM (inactive),9.23 µM (inactive),2.79 µM (inactive),3.1 µM (inactive),10.4 µM (inactive),13.9 µM (inactive),13.9 µM (inactive),15.1 µM (inactive),17.4 µM (inactive),2.42 µM (inactive),10.5 µM (inactive),4.51 µM (inactive),17.8 µM (inactive),12.9 µM (inactive)
N#C/C(=C\c1ccc([N+](=O)[O-])o1)c1n[nH]c(Cc2ccccc2)n1,1.95 µM (inactive),0.265 µM (active),2.72 µM (inactive),0.232 µM (active),1.4 µM (inactive),1.07 µM (active),1.63 µM (inactive),2.28 µM (inactive),1.67 µM (inactive),3.3 µM (inactive),0.368 µM (active),1.64 µM (inactive),0.423 µM (active),1.99 µM (inactive),4.52 µM (inactive),1.49 µM (inactive),4.93 µM (inactive),2.52 µM (inactive),0.173 µM (active),1.91 µM (inactive)
COc1ccc(/N=N\c2c(N)nn3c(SC)c(C#N)c(N)nc23)cc1,10.9 µM (inactive),2.02 µM (inactive),3.93 µM (inactive),7.74 µM (inactive),1.82 µM (inactive),1.74 µM (inactive),12.6 µM (inactive),2.4 µM (inactive),13.3 µM (inactive),15.8 µM (inactive),16.5 µM (inactive),2.82 µM (inactive),6.47 µM (inactive),2.76 µM (inactive),19.5 µM (inactive),5.27 µM (inactive),16.9 µM (inactive),17.8 µM (inactive),2.44 µM (inactive),5.11 µM (inactive)
C/C=C1/CN2CCC34c5ccccc5N5C(=O)C(C6CC78c9ccccc9N9C(=O)C=CC(C%10CC7N6C/C%10=C/C)C98)=CC(C1CC23)C54 (stereo not given),8.71 µM (inactive),0.501 µM (active),6.64 µM (inactive),5.53 µM (inactive),4.43 µM (inactive),10.3 µM (inactive),5.52 µM (inactive),2.13 µM (inactive),6.28 µM (inactive),6.65 µM (inactive),3.11 µM (inactive),5.6 µM (inactive),1.73 µM (inactive),6.53 µM (inactive),9.79 µM (inactive),5.53 µM (inactive),7.87 µM (inactive),6.62 µM (inactive),0.667 µM (active),5.62 µM (inactive)
COc1ncnc2c(NC3OC(CO)C(O)C3O)ncnc12 (stereo not given),0.267 µM (active),< 0.0209 µM (active),0.596 µM (active),0.0541 µM (active),0.28 µM (active),0.0445 µM (active),0.296 µM (active),0.041 µM (active),0.578 µM (active),0.279 µM (active),1.53 µM (inactive),0.733 µM (active),0.794 µM (active),2.47 µM (inactive),0.525 µM (active),0.428 µM (active),1.16 µM (inactive),0.735 µM (active),0.0266 µM (active),1.6 µM (inactive)
